Data reported in paper PMC4965013, “Open Source Drug Discovery with the Malaria Box Compound Collection for Neglected Diseases and Beyond” (PLoS Pathogens, 2016).
Like-named read-outs stand apart in the source and are kept apart here.

Legend:
P. falciparum = assay: EC50 listed in S2 Table Metabolomics (used to set the concentration tested); format: cell-based; conditions: Plasmodium falciparum; EC50 used for Factor_XEC50 in metabolomics; read-out: EC50_nM
[1] = system: P. falciparum 3D7 trophozoites; assay: Metabolomic fingerprint profiling LC-MS; format: cell-based, Plasmodium falciparum; design: UDP-D-glucose / ADP-D-glucose: unit not given here; conditions: for Acetyllysine / N-acetyl-L-ornithine / N-carbamoyl-L-aspartate / NADPH / dAMP / dCMP / dTDP / dTMP / dTTP / dihydroorotate / orotate / DLH / DLS/SDL/SID / PD / PEE / PVNF / 3-phosphoglycerate / ADP-D-glucose / ATP / CDP / D-sedoheptulose-1/7-phosphate / FAD / GMP / NAD+ / NADP+ / Octoluse Bisphosphate / Pyroglutamic acid / UDP-D-glucose / UDP-D-glucuronate / UDP-N-acetyl-glucosamine / UDP / UMP / UTP / a-ketoglutarate / citrate/isocitrate / cytidine / dATP / dGMP/AMP / fumarate / glucose-1/6-phosphate / glycerate / guanine / guanosine / hypoxanthine / indole / inosine / nicotinate / ornithine / phosphoenolpyruvate / pyruvate / ribose-phosphate / sarcosine/alanine / sn-glycerol-3-phosphate / succinate/methylmalonic acid / uridine / xanthosine: S2 Table Metabolomics; for Acetyllysine: metabolite Acetyllysine; for N-acetyl-L-ornithine: metabolite N-acetyl-L-ornithine; for N-carbamoyl-L-aspartate: metabolite N-carbamoyl-L-aspartate; for NADPH: metabolite NADPH; for dAMP: metabolite dAMP; for dCMP: metabolite dCMP; for dTDP: metabolite dTDP; for dTMP: metabolite dTMP; for dTTP: metabolite dTTP; for dihydroorotate: metabolite dihydroorotate; for orotate: metabolite orotate; for DLH: peptide DLH; for DLS/SDL/SID: peptide DLS/SDL/SID; for PD: peptide PD; for PEE: peptide PEE; for PVNF: peptide PVNF; for 3-phosphoglycerate: metabolite 3-phosphoglycerate; for ADP-D-glucose: metabolite ADP-D-glucose; for ATP: metabolite ATP; for CDP: metabolite CDP; for CDP / D-sedoheptulose-1/7-phosphate / GMP / Octoluse Bisphosphate / UDP / UMP / UTP / citrate/isocitrate / dGMP/AMP / fumarate / glucose-1/6-phosphate / glycerate / guanine / guanosine / inosine / pyruvate / sarcosine/alanine / succinate/methylmalonic acid / uridine / xanthosine: change in metabolite level after compound treatment; for D-sedoheptulose-1/7-phosphate: metabolite D-sedoheptulose-1/7-phosphate; for FAD: metabolite FAD; for GMP: metabolite GMP; for NAD+: metabolite NAD+; for NADP+: metabolite NADP+; for Octoluse Bisphosphate: metabolite Octoluse Bisphosphate; for Pyroglutamic acid: metabolite Pyroglutamic acid; for UDP-D-glucose: metabolite UDP-D-glucose; for UDP-D-glucuronate: metabolite UDP-D-glucuronate; for UDP-N-acetyl-glucosamine: metabolite UDP-N-acetyl-glucosamine; for UDP: metabolite UDP; for UMP: metabolite UMP; for UTP: metabolite UTP; for a-ketoglutarate: metabolite a-ketoglutarate; for citrate/isocitrate: metabolite citrate/isocitrate; for cytidine: metabolite cytidine; for dATP: metabolite dATP; for dGMP/AMP: metabolite dGMP/AMP; for fumarate: metabolite fumarate; for glucose-1/6-phosphate: metabolite glucose-1/6-phosphate; for glycerate: metabolite glycerate; for guanine: metabolite guanine; for guanosine: metabolite guanosine; for hypoxanthine: metabolite hypoxanthine; for indole: metabolite indole; for inosine: metabolite inosine; for 2_3-Diphosphoglyceric acid / 4-phosphopantothenate / 6-phospho-D-gluconate / FMN / IMP / Pyrophosphate / Sedoheptoluse bisphosphate / cyclic-AMP / glutathione disulfide / lactate / myo-inositol: metabolite level change after treatment; for nicotinate: metabolite nicotinate; for ornithine: metabolite ornithine; for phosphoenolpyruvate: metabolite phosphoenolpyruvate; for pyruvate: metabolite pyruvate; for ribose-phosphate: metabolite ribose-phosphate; for sarcosine/alanine: metabolite sarcosine/alanine; for sn-glycerol-3-phosphate: metabolite sn-glycerol-3-phosphate; for succinate/methylmalonic acid: metabolite succinate/methylmalonic acid; for uridine: metabolite uridine; for xanthosine: metabolite xanthosine
P. falciparum 3D7 = assay: [3H]-hypoxanthine growth inhibition, modified HCO3- or O2; format: cell-based; conditions: for IC50: Plasmodium falciparum
[2] = 3D7, read-out: P. falciparum 3D7 IC50 1% O2, 1% O2 hypoxia
[3] = 3D7, read-out: P. falciparum 3D7 IC50 5% O2
[4] = 3D7, read-out: P. falciparum 3D7 IC50 HCO3- (2g/L), standard media
[5] = 3D7, HCO3- reduced media, read-out: P. falciparum 3D7 IC50 HCO3- reduced

CN(C)CCCNc1c2ccccc2nc2ccccc12 [MMV000448]
EC50 (P. falciparum): 0.235 µM
Acetyllysine [1]: -0.6096
N-acetyl-L-ornithine [1]: -0.1966
N-carbamoyl-L-aspartate [1]: -0.218
NADPH [1]: 1.387
dAMP [1]: -0.07728
dCMP [1]: 0.0599
dTDP [1]: -0.2724
dTMP [1]: -0.1401
dTTP [1]: 0.115
dihydroorotate [1]: -0.03007
orotate [1]: -0.5122
DLH [1]: -0.2186
DLS/SDL/SID [1]: 0.06919
PD [1]: 0.358
PEE [1]: 0.9721
PVNF [1]: 0.2725
3-phosphoglycerate [1]: -0.1099
ADP-D-glucose [1]: 0.3085
ATP [1]: -0.1913
CDP [1]: 0.02837
D-sedoheptulose-1/7-phosphate [1]: -0.03224
FAD [1]: -0.02095
GMP [1]: -0.2572
NAD+ [1]: -0.1627
NADP+ [1]: 0.3266
Octoluse Bisphosphate [1]: -0.105
Pyroglutamic acid [1]: -0.3472
UDP-D-glucose [1]: -0.06298
UDP-D-glucuronate [1]: -0.1533
UDP-N-acetyl-glucosamine [1]: -0.07606
UDP [1]: 0.1622
UMP [1]: -0.1529
UTP [1]: 0.06952
a-ketoglutarate [1]: -0.5075
citrate/isocitrate [1]: -0.2451
cytidine [1]: -0.2174
dATP [1]: 0.09204
dGMP/AMP [1]: -0.1732
fumarate [1]: 0.04552
glucose-1/6-phosphate [1]: -0.4595
glycerate [1]: -0.9564
guanine [1]: 0.005054
guanosine [1]: -0.4079
hypoxanthine [1]: -0.5072
indole [1]: -0.3067
inosine [1]: -0.6058
2_3-Diphosphoglyceric acid [1]: 0.03945
4-phosphopantothenate [1]: -0.1337
6-phospho-D-gluconate [1]: 0.01561
FMN [1]: -0.3847
IMP [1]: -0.1057
Pyrophosphate [1]: 0.1028
Sedoheptoluse bisphosphate [1]: -0.05677
cyclic-AMP [1]: -0.3139
glutathione disulfide [1]: -0.02692
lactate [1]: -0.5186
myo-inositol [1]: -0.8275
nicotinate [1]: -0.004192
ornithine [1]: -0.09669
phosphoenolpyruvate [1]: -0.129
pyruvate [1]: -0.7877
ribose-phosphate [1]: -0.2371
sarcosine/alanine [1]: 0.03174
sn-glycerol-3-phosphate [1]: -0.01243
succinate/methylmalonic acid [1]: -0.2869
uridine [1]: -0.8523
xanthosine [1]: -0.9083
fold change (IC50normal/ IC50hypoxia) (P. falciparum 3D7): 6.1
fold change (IC50reduced/IC50normal) (P. falciparum 3D7): 3.1
IC50 (P. falciparum 3D7; [2]): 0.059 µM
IC50 (P. falciparum 3D7; [3]): 0.36 µM
IC50 (P. falciparum 3D7; [4]): 0.19 µM
IC50 (P. falciparum 3D7; [5]): 0.594 µM

CCN(CC)CCNc1ccnc2cc(Cl)ccc12 [MMV006087]
EC50 (P. falciparum): 0.0581 µM
Acetyllysine [1]: -0.6709
N-acetyl-L-ornithine [1]: -0.3158
N-carbamoyl-L-aspartate [1]: 0.2408
NADPH [1]: 1.332
dAMP [1]: 1.732
dCMP [1]: 0.4187
dTDP [1]: 0.1999
dTMP [1]: 1.797
dTTP [1]: -0.4289
dihydroorotate [1]: 0.1541
orotate [1]: -0.4098
DLH [1]: -1.609
DLS/SDL/SID [1]: -1.645
PD [1]: -0.5241
PEE [1]: 0.8188
PVNF [1]: -2.104
3-phosphoglycerate [1]: -0.1063
ADP-D-glucose [1]: 0.134
ATP [1]: -0.2173
CDP [1]: 0.2969
D-sedoheptulose-1/7-phosphate [1]: -0.3976
FAD [1]: -0.08711
GMP [1]: 0.04645
NAD+ [1]: -0.09966
NADP+ [1]: 0.09641
Octoluse Bisphosphate [1]: 0.7357
Pyroglutamic acid [1]: -0.2816
UDP-D-glucose [1]: -0.03029
UDP-D-glucuronate [1]: -0.03795
UDP-N-acetyl-glucosamine [1]: -0.1287
UDP [1]: -0.01186
UMP [1]: -0.1675
UTP [1]: -0.4234
a-ketoglutarate [1]: -1.012
citrate/isocitrate [1]: -0.5672
cytidine [1]: 0.4735
dATP [1]: -0.2015
dGMP/AMP [1]: 1.373
fumarate [1]: -0.3281
glucose-1/6-phosphate [1]: -0.3642
glycerate [1]: -1.245
guanine [1]: -0.2729
guanosine [1]: -1.735
hypoxanthine [1]: 0.3732
indole [1]: 0.02177
inosine [1]: -0.5366
2_3-Diphosphoglyceric acid [1]: -0.3682
4-phosphopantothenate [1]: -0.474
6-phospho-D-gluconate [1]: -0.3619
FMN [1]: 0.01066
IMP [1]: -0.05089
Pyrophosphate [1]: -0.2464
Sedoheptoluse bisphosphate [1]: 1.503
cyclic-AMP [1]: -0.4094
glutathione disulfide [1]: -0.5661
lactate [1]: -0.8938
myo-inositol [1]: -1.322
nicotinate [1]: -1.055
ornithine [1]: 0.317
phosphoenolpyruvate [1]: -0.3268
pyruvate [1]: -1.42
ribose-phosphate [1]: -0.4165
sarcosine/alanine [1]: -0.8094
sn-glycerol-3-phosphate [1]: -0.2401
succinate/methylmalonic acid [1]: -0.2149
uridine [1]: -1.004
xanthosine [1]: -1.365
fold change (IC50normal/ IC50hypoxia) (P. falciparum 3D7): 2.2
fold change (IC50reduced/IC50normal) (P. falciparum 3D7): 2.0
IC50 (P. falciparum 3D7; [2]): 0.018 µM
IC50 (P. falciparum 3D7; [3]): 0.04 µM
IC50 (P. falciparum 3D7; [4]): 0.046 µM
IC50 (P. falciparum 3D7; [5]): 0.094 µM
